What all share (type): biochemical
The target in one assay is T1, c-Met (Homo sapiens, UniProt P08581).
T1 construct: Kinases are expressed as either kinase domains or full length constructs; made in house
The experiment in a line: Kinase inhibition assay (33P transfer), c-Met. Particulars: Table 2, kinase inhibition class; read-out: Met-1. The procedure, abridged: (§1)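 GST/His-fusion kinases, E. coli or High Five expressed, affinity purified; 33P-ATP, plate-coated poly(Glu,Tyr) 4:1 or poly(Arg,Ser) 3:1; 0.5% H3PO4 wash, scintillant, LSC.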

The target in the next assay is T2, AKT (Homo sapiens, UniProt Q9Y243).
T2 construct: Kinases are expressed as either kinase domains or full length constructs; made in house
T2 sequence (Q9Y243 whole entry, the tested form may be a part): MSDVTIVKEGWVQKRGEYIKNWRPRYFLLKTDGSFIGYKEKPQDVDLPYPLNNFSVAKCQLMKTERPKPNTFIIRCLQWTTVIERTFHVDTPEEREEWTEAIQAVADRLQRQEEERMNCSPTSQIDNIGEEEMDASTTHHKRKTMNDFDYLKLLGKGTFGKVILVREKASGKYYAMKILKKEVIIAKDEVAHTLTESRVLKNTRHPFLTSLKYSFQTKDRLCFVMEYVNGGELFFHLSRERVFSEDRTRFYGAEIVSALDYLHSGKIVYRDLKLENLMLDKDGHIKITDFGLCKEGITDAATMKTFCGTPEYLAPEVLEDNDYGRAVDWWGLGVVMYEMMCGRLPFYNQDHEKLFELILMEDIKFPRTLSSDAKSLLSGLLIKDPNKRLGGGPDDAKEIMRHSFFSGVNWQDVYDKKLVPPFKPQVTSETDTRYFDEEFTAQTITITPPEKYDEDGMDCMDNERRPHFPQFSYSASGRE
The experiment in a line: Kinase inhibition assay (33P transfer), AKT. Particulars: Table 2, kinase inhibition class; read-out: AKT3-1. The procedure, abridged:
(§2)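 Kinase domain or full-length constructs, GST- or polyHis-tagged, expressed in E. coli or baculovirus-High Five cells, sometimes with regulatory polypeptides. Activity measured as 33PO4 transfer from ATP to plate-bound poly(Glu,Tyr) 4:1 or poly(Arg,Ser) 3:1; after incubation, plates washed with 0.5% phosphoric acid and counted by liquid scintillation.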

The target of a further assay is T3, EGFR (Homo sapiens, UniProt P00533).
T3 construct: Kinases are expressed as either kinase domains or full length constructs; made in house
The assay is described as follows: Kinase inhibition assay (33P transfer), EGFR. Particulars: Table 2, kinase inhibition class; read-out: EGFR-1. In a few lines:
as §1

The target of a further assay is T4, FGFR1 (Homo sapiens, UniProt P11362).
T4 construct: Kinases are expressed as either kinase domains or full length constructs; made in house
T4 sequence (P11362 22-822, species assumed): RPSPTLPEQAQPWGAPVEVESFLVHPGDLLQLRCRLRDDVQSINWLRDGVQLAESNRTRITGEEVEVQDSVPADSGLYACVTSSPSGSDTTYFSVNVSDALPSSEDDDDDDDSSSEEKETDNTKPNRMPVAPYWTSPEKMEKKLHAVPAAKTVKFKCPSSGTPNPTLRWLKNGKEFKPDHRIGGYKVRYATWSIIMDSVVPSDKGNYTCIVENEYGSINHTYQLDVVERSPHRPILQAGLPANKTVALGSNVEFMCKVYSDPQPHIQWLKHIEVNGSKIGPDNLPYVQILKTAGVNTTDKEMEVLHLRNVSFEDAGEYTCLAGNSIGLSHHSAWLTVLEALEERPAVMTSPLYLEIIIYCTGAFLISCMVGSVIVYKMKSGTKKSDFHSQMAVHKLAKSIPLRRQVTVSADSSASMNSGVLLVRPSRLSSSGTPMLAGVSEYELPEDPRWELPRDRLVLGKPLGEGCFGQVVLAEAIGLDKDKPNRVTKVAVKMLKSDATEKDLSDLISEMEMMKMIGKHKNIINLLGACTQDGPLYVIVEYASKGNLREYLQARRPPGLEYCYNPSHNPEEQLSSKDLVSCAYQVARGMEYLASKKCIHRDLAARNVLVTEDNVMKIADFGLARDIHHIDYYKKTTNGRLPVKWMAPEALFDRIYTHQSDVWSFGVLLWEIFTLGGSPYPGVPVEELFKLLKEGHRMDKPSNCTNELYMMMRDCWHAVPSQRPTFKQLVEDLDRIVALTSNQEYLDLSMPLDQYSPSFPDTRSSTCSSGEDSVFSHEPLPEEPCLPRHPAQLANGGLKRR
The assay is described as follows: Kinase inhibition assay (33P transfer), FGFR1. Particulars: read-out: FGFR1-1.

The target in the next assay is T5, PDGFRB (Homo sapiens, UniProt P09619).
T5 construct: Kinases are expressed as either kinase domains or full length constructs; made in house
The assay is described as follows: Kinase inhibition assay (33P transfer), PDGFRB. Particulars: read-out: PDGFRB-1.

A further assay concerns the target T6, Flt-1 (Homo sapiens, UniProt P17948).
T6 construct: Kinases are expressed as either kinase domains or full length constructs; made in house
The assay is described as follows: Kinase inhibition assay (33P transfer), Flt-1. The procedure, abridged:
as §1

The target of another assay is T7, Kdr (Homo sapiens, UniProt P35968).
T7 construct: Kinases are expressed as either kinase domains or full length constructs; made in house
T7 sequence (P35968 20-1356, species assumed): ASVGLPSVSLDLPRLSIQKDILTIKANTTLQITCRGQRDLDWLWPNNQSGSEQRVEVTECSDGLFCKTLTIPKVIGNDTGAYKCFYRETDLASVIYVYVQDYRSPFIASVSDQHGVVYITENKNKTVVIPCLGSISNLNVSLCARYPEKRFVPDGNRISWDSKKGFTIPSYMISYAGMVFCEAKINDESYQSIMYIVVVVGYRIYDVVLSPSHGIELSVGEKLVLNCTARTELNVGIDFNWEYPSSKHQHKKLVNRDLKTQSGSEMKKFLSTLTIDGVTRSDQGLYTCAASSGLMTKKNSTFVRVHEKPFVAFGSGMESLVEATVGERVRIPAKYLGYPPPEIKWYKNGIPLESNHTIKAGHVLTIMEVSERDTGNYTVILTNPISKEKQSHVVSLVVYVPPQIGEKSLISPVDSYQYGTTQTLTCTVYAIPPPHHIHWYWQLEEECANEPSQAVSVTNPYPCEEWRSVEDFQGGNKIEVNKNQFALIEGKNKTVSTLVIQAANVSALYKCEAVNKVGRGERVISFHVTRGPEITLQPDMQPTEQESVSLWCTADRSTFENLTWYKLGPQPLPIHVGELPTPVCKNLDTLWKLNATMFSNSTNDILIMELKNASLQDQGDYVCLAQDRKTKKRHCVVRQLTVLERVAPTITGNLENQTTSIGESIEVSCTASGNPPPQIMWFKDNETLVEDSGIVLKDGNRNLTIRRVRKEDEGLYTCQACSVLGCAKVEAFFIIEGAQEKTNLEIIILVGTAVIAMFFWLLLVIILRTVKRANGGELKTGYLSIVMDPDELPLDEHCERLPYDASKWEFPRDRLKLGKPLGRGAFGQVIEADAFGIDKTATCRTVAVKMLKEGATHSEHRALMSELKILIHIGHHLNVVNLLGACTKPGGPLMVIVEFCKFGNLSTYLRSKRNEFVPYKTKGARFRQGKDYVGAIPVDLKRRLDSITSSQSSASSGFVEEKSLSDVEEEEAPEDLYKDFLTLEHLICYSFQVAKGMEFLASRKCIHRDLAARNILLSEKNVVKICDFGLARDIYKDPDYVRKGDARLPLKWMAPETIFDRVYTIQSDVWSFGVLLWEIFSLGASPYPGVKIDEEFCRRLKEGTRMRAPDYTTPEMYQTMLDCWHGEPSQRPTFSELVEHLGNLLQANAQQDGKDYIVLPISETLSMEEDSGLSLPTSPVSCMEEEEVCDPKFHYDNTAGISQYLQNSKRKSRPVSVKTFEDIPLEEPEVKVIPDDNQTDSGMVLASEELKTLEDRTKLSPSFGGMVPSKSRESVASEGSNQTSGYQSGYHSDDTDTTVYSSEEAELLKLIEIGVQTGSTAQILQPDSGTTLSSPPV
The experiment in a line: Kinase inhibition assay (33P transfer), Kdr. Particulars: Table 3; read-out: KDR-1. The procedure, abridged: as §2

The target in a further assay is T8, Itk (Homo sapiens, UniProt Q08881).
T8 construct: Kinases are expressed as either kinase domains or full length constructs; made in house
T8 sequence (Q08881 1-620): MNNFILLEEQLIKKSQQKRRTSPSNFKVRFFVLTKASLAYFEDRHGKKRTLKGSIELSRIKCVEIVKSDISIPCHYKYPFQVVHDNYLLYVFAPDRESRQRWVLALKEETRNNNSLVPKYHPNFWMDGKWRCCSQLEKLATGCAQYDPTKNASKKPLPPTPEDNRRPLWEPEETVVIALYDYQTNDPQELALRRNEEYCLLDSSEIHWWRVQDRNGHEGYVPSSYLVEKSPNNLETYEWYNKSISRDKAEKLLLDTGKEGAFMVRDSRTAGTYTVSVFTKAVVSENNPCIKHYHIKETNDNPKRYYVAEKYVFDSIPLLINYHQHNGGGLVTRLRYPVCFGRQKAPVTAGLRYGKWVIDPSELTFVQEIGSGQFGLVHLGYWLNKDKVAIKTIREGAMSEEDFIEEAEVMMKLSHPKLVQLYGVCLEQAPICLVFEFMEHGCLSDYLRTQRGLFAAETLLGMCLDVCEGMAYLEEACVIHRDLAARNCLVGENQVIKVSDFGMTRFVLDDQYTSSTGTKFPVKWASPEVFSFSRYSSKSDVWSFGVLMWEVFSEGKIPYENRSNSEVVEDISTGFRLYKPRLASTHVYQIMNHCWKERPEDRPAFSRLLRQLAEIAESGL
The experiment in a line: Kinase inhibition assay (33P transfer), Itk. Particulars: Table 3; read-out: Itk-1. The procedure, abridged: as §1

For a further assay, the target named is T9, Src (Homo sapiens, UniProt P12931).
T9 construct: Kinases are expressed as either kinase domains or full length constructs; made in house
The experiment in a line: Kinase inhibition assay (33P transfer), Src. Particulars: Table 6, Src-1 kinase inhibition class. In a few lines: as §1

In another assay the target is T10, Lck (Homo sapiens, UniProt P06239).
T10 construct: Kinases are expressed as either kinase domains or full length constructs; made in house
T10 sequence (P06239 whole entry, species assumed, the tested form may be a part): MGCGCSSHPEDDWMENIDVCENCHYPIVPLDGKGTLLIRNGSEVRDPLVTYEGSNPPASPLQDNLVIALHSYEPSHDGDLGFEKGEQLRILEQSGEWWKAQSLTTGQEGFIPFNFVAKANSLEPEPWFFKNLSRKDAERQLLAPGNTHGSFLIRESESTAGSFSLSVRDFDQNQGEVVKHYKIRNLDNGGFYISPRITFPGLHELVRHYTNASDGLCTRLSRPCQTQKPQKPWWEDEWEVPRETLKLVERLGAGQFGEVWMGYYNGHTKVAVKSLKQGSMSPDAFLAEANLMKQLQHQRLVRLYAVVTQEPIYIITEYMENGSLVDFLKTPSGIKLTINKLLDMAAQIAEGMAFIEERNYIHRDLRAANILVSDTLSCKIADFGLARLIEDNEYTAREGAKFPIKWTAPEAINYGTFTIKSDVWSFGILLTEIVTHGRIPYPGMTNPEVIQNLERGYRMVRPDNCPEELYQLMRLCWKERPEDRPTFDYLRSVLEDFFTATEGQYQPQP
The assay is described as follows: Kinase inhibition assay (33P transfer), Lck. Particulars: Table 3; read-out: Lck-1. In a few lines: as §2

Another assay has as its target T11, IGFR-1 (Homo sapiens, UniProt P08069).
T11 construct: Kinases are expressed as either kinase domains or full length constructs; made in house
The experiment in a line: Kinase inhibition assay (33P transfer), IGFR-1. Particulars: Table 2, kinase inhibition class.

In another assay the target is T12, Hck-1 (Homo sapiens, UniProt P08631).
T12 construct: Kinases are expressed as either kinase domains or full length constructs; made in house
The assay is described as follows: Kinase inhibition assay (33P transfer), Hck. Particulars: Table 6, Hck-1 kinase inhibition class.

A further assay concerns the target T13, Fyn (Homo sapiens, UniProt P06241).
T13 construct: Kinases are expressed as either kinase domains or full length constructs; made in house
The experiment in a line: Kinase inhibition assay (33P transfer), Fyn. Particulars: read-out: Fyn-1. In a few lines:
as §1

T11 sequence (P08069 31-1367): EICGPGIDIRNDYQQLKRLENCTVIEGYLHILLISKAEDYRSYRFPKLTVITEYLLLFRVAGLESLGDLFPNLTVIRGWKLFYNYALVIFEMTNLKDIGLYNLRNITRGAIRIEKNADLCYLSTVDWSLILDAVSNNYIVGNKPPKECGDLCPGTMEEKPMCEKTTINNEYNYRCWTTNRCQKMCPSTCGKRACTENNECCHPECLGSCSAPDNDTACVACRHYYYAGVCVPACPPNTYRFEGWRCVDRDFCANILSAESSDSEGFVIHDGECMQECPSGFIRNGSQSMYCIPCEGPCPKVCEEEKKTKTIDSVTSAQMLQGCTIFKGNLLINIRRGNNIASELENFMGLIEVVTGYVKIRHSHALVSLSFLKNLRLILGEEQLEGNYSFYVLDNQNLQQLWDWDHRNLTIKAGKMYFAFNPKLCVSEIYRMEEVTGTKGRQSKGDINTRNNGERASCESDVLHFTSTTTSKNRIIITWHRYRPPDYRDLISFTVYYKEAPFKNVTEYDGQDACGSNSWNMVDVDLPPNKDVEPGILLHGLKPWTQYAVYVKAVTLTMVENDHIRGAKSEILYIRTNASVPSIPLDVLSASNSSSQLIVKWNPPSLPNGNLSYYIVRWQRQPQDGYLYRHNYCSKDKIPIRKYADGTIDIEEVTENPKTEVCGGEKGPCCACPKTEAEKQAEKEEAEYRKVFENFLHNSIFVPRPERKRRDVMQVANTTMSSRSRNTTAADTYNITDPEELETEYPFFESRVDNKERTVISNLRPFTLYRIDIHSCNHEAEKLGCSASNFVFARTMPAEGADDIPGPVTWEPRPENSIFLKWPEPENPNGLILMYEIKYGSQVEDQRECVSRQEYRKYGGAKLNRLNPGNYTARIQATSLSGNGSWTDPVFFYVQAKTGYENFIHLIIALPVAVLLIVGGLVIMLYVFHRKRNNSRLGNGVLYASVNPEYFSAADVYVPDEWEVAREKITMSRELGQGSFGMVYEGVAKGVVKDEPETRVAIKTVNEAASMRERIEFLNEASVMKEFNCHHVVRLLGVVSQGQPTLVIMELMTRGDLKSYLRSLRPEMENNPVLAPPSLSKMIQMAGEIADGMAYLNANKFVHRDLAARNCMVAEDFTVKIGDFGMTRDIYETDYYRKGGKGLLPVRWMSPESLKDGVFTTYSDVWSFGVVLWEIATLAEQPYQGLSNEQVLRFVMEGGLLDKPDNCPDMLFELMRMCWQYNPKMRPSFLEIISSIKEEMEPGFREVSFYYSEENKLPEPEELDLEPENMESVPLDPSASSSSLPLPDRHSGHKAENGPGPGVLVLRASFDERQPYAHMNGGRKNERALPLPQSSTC
T13 sequence (P06241 whole entry, species assumed, the tested form may be a part): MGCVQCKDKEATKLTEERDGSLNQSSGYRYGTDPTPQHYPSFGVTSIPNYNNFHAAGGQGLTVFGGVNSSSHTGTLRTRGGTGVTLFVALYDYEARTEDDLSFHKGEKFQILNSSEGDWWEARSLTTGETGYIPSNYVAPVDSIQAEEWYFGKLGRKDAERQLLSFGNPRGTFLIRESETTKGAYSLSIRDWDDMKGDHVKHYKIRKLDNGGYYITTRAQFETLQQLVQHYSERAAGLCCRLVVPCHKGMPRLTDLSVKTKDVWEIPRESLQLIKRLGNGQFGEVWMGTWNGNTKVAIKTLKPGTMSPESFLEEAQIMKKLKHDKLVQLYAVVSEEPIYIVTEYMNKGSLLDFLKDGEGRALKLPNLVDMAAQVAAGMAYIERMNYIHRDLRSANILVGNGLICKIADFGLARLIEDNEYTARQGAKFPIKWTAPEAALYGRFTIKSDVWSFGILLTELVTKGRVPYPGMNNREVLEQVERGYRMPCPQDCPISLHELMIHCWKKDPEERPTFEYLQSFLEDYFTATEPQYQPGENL

In the case of `COc1cc(Nc2ncnc(Nc3ccc(F)c(Cl)c3)n2)cc(OC)c1OC` [Compound 61], the IC50 is > 11.1 µM on c-Met; > 11.1 µM at AKT; < 0.986 µM at EGFR; > 11.1 µM on FGFR1; < 0.986 µM on PDGFRB; < 0.986 µM at Flt-1. In addition, the IC50 was < 0.986 µM on Kdr; > 11.1 µM at Itk; < 0.986 µM on Src; < 0.986 µM on Lck; < 0.986 µM at IGFR-1; > 11.1 µM on Hck-1. Further, the IC50 on Fyn was < 0.986 µM.
With `COc1cc(Nc2ncnc(Nc3cccc(C)c3)n2)cc(OC)c1OC` [Compound 64], the IC50 at c-Met is 6.53 to 9.53 µM; on AKT it was > 12.2 µM; at EGFR it was < 1.09 µM; at FGFR1, > 12.2 µM; at PDGFRB, 9.53 to 12.2 µM; on Flt-1, > 12.2 µM. Besides, the IC50 on Kdr is 1.09 to 6.53 µM; on Itk, > 12.2 µM; against Src, < 1.09 µM; at Lck, 1.09 to 6.53 µM; against IGFR-1, < 1.09 µM; on Hck-1, > 12.2 µM. In addition, the IC50 at Fyn lay within 1.09 to 6.53 µM.
For the compound `COc1cc(Nc2ncnc(Nc3ccccc3F)n2)cc(OC)c1OC` [Compound 65], the IC50 at c-Met is > 12.1 µM; at AKT, > 12.1 µM; on EGFR, < 1.08 µM; at FGFR1 it was > 12.1 µM; at PDGFRB, < 1.08 µM; against Flt-1, 1.08 to 6.46 µM. Moreover, the IC50 at Kdr was 1.08 to 6.46 µM; on Itk, > 12.1 µM; against Src, 1.08 to 6.46 µM; at Lck, 9.42 to 12.1 µM; against IGFR-1, 1.08 to 6.46 µM; at Hck-1, > 12.1 µM. Moreover, the IC50 on Fyn is > 12.1 µM.
On to `COc1cc(Nc2ncnc(Nc3ccc(C(C)C)cc3)n2)cc(OC)c1OC` [Compound 66], for which the IC50 on c-Met was 1.01 to 6.07 µM; on AKT, > 11.4 µM; on EGFR it was > 11.4 µM; at FGFR1, > 11.4 µM; at PDGFRB, > 11.4 µM; at Flt-1, > 11.4 µM. Also, the IC50 at Kdr was 1.01 to 6.07 µM; on Itk, > 11.4 µM; at Src it was < 1.01 µM; at Lck, 1.01 to 6.07 µM; against IGFR-1, < 1.01 µM; against Hck-1 it was > 11.4 µM. In addition, the IC50 on Fyn is > 11.4 µM.
On to `COc1cc(Nc2ncnc(Nc3ccccc3C)n2)cc(OC)c1OC` [Compound 67], for which the IC50 on c-Met is > 12.2 µM; on AKT, > 12.2 µM; at EGFR it was 6.53 to 9.53 µM; on FGFR1 it was > 12.2 µM; on PDGFRB it was 1.09 to 6.53 µM; at Flt-1 it was 9.53 to 12.2 µM. The IC50 at Kdr is 1.09 to 6.53 µM; at Itk, > 12.2 µM; against Src, 1.09 to 6.53 µM; at Lck, 1.09 to 6.53 µM; at IGFR-1, 9.53 to 12.2 µM; on Hck-1, > 12.2 µM. At Fyn, the IC50 lay within 9.53 to 12.2 µM.
For the compound `COc1cc(Nc2ncnc(Nc3cc(Cl)c(O)c(Cl)c3)n2)cc(OC)c1OC` [Compound 68], the IC50 on c-Met is 7.99 to 10.3 µM; on AKT, > 10.3 µM; at EGFR, < 0.913 µM; on FGFR1 it was > 10.3 µM; at PDGFRB it was 0.913 to 5.48 µM; at Flt-1 it was < 0.913 µM. In addition, the IC50 is < 0.913 µM on Kdr; > 10.3 µM on Itk; < 0.913 µM against Src; < 0.913 µM on Lck; < 0.913 µM against IGFR-1; > 10.3 µM against Hck-1. On Fyn, the IC50 was > 10.3 µM.

The record behind these values is patent US7074789B2, “Kinase inhibitors” (Amgen Inc., priority 1999, dated 2006).
